Laboratory results as given in ChEMBL document CHEMBL2406911, “Structure guided design of a series of sphingosine kinase (SphK) inhibitors” (Bioorg Med Chem Lett, 2013).

Experiments:
[1] = target: T1, Sphingosine kinase 1 (Homo sapiens, UniProt Q9NYA1)
Description: Inhibition of purified human SphK1 assessed as inhibition of formation of [33P]-S1P after 50 mins by scintillation counting

[2] = target: T2, Sphingosine kinase 2 (Homo sapiens, UniProt Q9NRA0)
T2 sequence (Q9NRA0 whole entry): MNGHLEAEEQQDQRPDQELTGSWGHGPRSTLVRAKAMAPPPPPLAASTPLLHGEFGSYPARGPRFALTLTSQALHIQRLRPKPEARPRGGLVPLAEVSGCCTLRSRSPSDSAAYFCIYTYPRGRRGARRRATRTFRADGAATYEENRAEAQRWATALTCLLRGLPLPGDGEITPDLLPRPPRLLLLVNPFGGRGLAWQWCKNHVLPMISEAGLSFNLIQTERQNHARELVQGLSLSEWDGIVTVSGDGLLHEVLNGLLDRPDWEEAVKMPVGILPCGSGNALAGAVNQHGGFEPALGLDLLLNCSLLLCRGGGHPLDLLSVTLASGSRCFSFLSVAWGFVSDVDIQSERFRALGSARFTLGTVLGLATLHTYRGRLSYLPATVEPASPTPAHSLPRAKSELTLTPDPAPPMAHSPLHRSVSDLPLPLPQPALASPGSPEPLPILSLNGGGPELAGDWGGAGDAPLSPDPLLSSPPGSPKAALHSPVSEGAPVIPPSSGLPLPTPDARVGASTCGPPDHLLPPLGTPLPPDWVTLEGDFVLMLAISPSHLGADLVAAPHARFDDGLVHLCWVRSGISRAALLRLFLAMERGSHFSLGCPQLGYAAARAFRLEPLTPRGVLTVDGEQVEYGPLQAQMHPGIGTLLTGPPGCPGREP
Description: Inhibition of purified human SphK2 assessed as inhibition of formation of [33P]-S1P after 50 mins by scintillation counting

[3] = target: T1, Sphingosine kinase 1; remark: listed apart in the source
Description: Inhibition of SphK1 in human WM266-4 cells assessed as inhibition of formation of [17C]-S1P formation after 20 mins by LC-MS analysis

[4] = Volume of distribution at steady state in rat at 0.5 mg/kg, iv; format: ADME, organism-based; design: dose 0.5 mg/kg, route intravenous; conditions: in vivo, read-out: Vdss
[5] = Clearance in rat at 0.5 mg/kg, iv; format: ADME, organism-based; design: dose 0.5 mg/kg, route intravenous; conditions: in vivo
[6] = Fraction unbound in rat plasma by ultra-centrifugation method; format: ADME, cell-free
[7] = target: T3, Sphingosine kinase 2 (Mus musculus, UniProt Q9JIA7); assay: Inhibition of mouse SphK2
T3 sequence (Q9JIA7 whole entry): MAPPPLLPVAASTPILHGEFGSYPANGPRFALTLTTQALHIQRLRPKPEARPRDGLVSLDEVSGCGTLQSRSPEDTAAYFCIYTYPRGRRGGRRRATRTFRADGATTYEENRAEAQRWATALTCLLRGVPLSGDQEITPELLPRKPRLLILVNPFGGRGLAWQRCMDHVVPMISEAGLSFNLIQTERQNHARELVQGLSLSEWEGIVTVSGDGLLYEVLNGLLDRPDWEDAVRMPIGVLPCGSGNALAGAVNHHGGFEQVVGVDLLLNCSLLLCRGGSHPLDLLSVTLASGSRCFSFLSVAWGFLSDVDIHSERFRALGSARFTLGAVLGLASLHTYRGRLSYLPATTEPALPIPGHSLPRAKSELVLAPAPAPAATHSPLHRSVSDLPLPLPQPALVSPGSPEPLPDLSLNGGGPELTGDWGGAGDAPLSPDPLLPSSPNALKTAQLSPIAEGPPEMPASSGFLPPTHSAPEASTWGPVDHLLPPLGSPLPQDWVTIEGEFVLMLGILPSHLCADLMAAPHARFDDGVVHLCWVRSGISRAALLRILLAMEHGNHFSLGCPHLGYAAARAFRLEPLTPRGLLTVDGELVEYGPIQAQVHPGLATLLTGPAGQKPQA

[8] = Fraction unbound in human plasma by ultra-centrifugation method; format: ADME, cell-free
[9] = Mean residence time in rat at 0.5 mg/kg, iv; format: ADME, organism-based; design: dose 0.5 mg/kg, route intravenous; conditions: in vivo
[10] = target: Sphingosine kinase 1 (Mus musculus, UniProt Q8CI15); assay: Inhibition of mouse SphK1
Sequence of Sphingosine kinase 1 (Mus musculus, UniProt Q8CI15) (Q8CI15 whole entry): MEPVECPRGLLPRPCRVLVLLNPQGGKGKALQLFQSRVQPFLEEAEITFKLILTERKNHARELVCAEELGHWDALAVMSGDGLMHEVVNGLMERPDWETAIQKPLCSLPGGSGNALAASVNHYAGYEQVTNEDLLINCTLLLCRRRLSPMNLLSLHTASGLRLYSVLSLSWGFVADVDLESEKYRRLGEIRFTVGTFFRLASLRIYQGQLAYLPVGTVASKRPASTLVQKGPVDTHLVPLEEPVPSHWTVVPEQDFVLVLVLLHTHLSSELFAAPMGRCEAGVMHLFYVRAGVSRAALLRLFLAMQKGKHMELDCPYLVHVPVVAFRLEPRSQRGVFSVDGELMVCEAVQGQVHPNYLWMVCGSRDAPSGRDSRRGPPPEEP

[11] = Oral bioavailability in mouse at 5 mg/kg; format: ADME, organism-based; conditions: in vivo
[12] = Clearance in mouse at 5 mg/kg, po; format: ADME, organism-based; design: dose 5 mg/kg, route oral; conditions: in vivo
[13] = Mean residence time in mouse at 5 mg/kg, po; format: ADME, organism-based; design: dose 5 mg/kg, route oral; conditions: in vivo

T1 sequence (Q9NYA1 whole entry): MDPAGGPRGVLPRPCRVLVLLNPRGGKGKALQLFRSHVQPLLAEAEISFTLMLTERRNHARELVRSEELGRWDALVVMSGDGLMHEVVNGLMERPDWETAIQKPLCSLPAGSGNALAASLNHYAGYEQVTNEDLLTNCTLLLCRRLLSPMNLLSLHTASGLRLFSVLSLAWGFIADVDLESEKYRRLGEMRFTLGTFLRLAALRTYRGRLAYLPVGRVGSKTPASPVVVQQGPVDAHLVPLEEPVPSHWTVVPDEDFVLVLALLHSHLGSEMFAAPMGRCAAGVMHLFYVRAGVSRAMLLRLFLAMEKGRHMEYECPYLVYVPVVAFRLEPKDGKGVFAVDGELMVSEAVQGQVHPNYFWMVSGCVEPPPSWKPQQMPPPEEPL

Row | SMILES | IC50 [1] | IC50 [2] | other results
1 | Cc1ccc(-c2csc(Nc3ccc(CCN4CC[C@H](O)C[C@@H]4CO)cc3)n2)cc1 | 7 nM |  | 
2 | N#Cc1ccc(-c2csc(Nc3ccc(CCN4CCCC[C@@H]4CO)cc3)n2)cc1 | > 10000 nM |  | 
3 | CN1CCN(CCc2ccc(Nc3nc(-c4ccc5ccccc5c4)cs3)cc2)C(CO)C1 (configuration not stated) |  | 1700 nM | 
4 | OC[C@H]1C[C@@H](O)CCN1CCCc1ccc(Nc2nc(-c3ccc(Cl)c(Cl)c3)cs2)cc1 | 2500 nM | > 10000 nM | 
5 | OCC1CCCCCN1CCc1ccc(Nc2nc(-c3ccc4ccccc4c3)cs2)cc1 (configuration not stated) |  | > 10000 nM | 
6 | O=S1(=O)CCN(CCc2ccc(Nc3nc(-c4ccc(Cl)c(Cl)c4)cs3)cc2)C(CO)C1 (configuration not stated) |  | 3000 nM | 
7 | OCC1CCN1CCc1ccc(Nc2nc(-c3ccc4ccccc4c3)cs2)cc1 (configuration not stated) |  | 2500 nM | 
8 | COC[C@H]1CCCN1CCc1ccc(Nc2nc(-c3ccc4ccccc4c3)cs2)cc1 |  | 5700 nM | 
9 | OC[C@H]1C[C@@H](O)CCN1CCc1ccc(Nc2nc(-c3cccc(C(F)(F)F)c3F)cs2)cc1 | 5 nM |  | EC50 [3]: 250 nM
10 | OC[C@@H]1CCCN1CCc1ccc(Nc2nc(-c3ccc4ccccc4c3)cs2)cc1 | 990 nM | 2500 nM | 
11 | OC[C@H]1C[C@H](O)CN1CCc1ccc(Nc2nc(-c3ccc(Cl)c(Cl)c3)cs2)cc1 |  | 250 nM | Vd [4]: > 100 L/kg; clearance [5]: > 233 mL/min/kg
12 | CCCCc1ccc(/C=C/[C@H](O)[C@@H](CO)NC)cc1 |  |  | Ki [1]: 10000 nM; Ki [2]: > 100000 nM
13 | OC[C@H]1C[C@@H](O)CCN1CCc1ccc(Nc2nc(-c3ccc(Cl)cc3Cl)cs2)cc1 |  |  | Vd [4]: 18 L/kg; fraction unbound [6]: 0.01; IC50 [7]: > 10000 nM; fraction unbound [8]: 0.02; MRT [9]: 14 h; IC50 [10]: 20 nM; clearance [5]: 21.7 mL/min/kg
14 | OC[C@H]1C[C@@H](O)CN1CCc1ccc(Nc2nc(-c3ccc(Cl)c(Cl)c3)cs2)cc1 |  | 90 nM | Vd [4]: > 100 L/kg; clearance [5]: > 233 mL/min/kg
15 | OC[C@H]1C[C@@H](O)CCN1CCc1ccc(Nc2nc(-c3ccc(C(F)(F)F)cc3)cs2)cc1 |  |  | bioavailability [11]: 32%; CL/F [12]: 11.7 mL/min/kg; Vd [4]: 17 L/kg; fraction unbound [6]: 0.03; fraction unbound [8]: 0.04; MRT [13]: 13 h; MRT [9]: 12 h; IC50 [10]: 70 nM; clearance [5]: 23.3 mL/min/kg
16 | OC[C@H]1CCCN1CCc1ccc(Nc2nc(-c3ccc4ccccc4c3)cs2)cc1 | 580 nM | 2700 nM | 
17 | OC[C@H]1CCCCN1CCc1ccc(Nc2nc(-c3ccc(Cl)cc3)cs2)cc1 | 80 nM |  | 

Row | SMILES | IC50 [1] | IC50 [2] | other results
18 | OC[C@H]1C[C@@H](O)CCN1CCc1ccc(Nc2nc(-c3ccccc3)cs2)cc1 | 70 nM |  | EC50 [3]: 310 nM
19 | CCCCCCCCCCCCc1ccc(C(=O)NC2(C(=N)N)CC2)cc1 |  |  | Ki [1]: 200 nM; Ki [2]: 500 nM
20 | OCCC1CCCCN1CCc1ccc(Nc2nc(-c3ccc4ccccc4c3)cs2)cc1 (configuration not stated) | > 10000 nM | > 10000 nM | 
21 | OC[C@H]1C[C@@H](O)CCN1CCc1ccc(Nc2nc(-c3ccc(Cl)cc3)cs2)cc1 | 8 nM |  | EC50 [3]: 130 nM
22 | OC[C@@H]1CCCCN1CCc1ccc(Nc2nc(-c3ccc4ccccc4c3)cs2)cc1 | 1100 nM |  | 
23 | OC[C@H]1C[C@@H](O)CCN1CCc1ccc(Nc2nc(C3CCCC3)cs2)cc1 | 130 nM | > 5000 nM | EC50 [3]: 850 nM
24 | OCC1CCCCN1CCc1ccc(Nc2nc(-c3ccc4ccccc4c3)cs2)cc1 (configuration not stated) | 140 nM |  | 
25 | CC(C)(C)c1csc(Nc2ccc(CCN3CC[C@H](O)C[C@@H]3CO)cc2)n1 | > 5000 nM | > 10000 nM | 
26 | OC[C@H]1C[C@@H](O)CN1CCCc1ccc(Nc2nc(-c3ccc(Cl)c(Cl)c3)cs2)cc1 | 30 nM | 270 nM | Vd [4]: > 100 L/kg; clearance [5]: > 233 mL/min/kg
27 | CCCCc1csc(Nc2ccc(CCN3CC[C@H](O)C[C@@H]3CO)cc2)n1 | 70 nM | > 5000 nM | EC50 [3]: 370 nM
28 | OCC1COCCN1CCc1ccc(Nc2nc(-c3ccc4ccccc4c3)cs2)cc1 (configuration not stated) |  | > 10000 nM | 
29 | OC[C@H]1CCCCN1CCc1ccc(Nc2nc(-c3cccc(Cl)c3)cs2)cc1 | 270 nM |  | 
30 | OC[C@H]1C[C@@H](O)CCN1CCc1ccc(Nc2nc(-c3cccc(F)c3)cs2)cc1 |  | > 5000 nM | 
31 | N=C(N)[C@@H]1CCCN1C(=O)c1ccc(-c2nc(-c3cccc(CCC4CCCCC4)c3)co2)cc1 |  |  | Ki [1]: 50 nM; Ki [2]: 4200 nM
32 | OC[C@H]1C[C@H](O)CN1CCCc1ccc(Nc2nc(-c3ccc(Cl)c(Cl)c3)cs2)cc1 | 30 nM | 90 nM | Vd [4]: > 100 L/kg; clearance [5]: > 233 mL/min/kg
33 | OC[C@H]1CCCCN1CCc1ccc(Nc2nc(-c3ccc4ccccc4c3)cs2)cc1 | 80 nM |  | 
